Data set [1] has as its system D4 receptors. Briefly: D4 receptor binding, 3H-YM 09151-2 displacement, COS cell pellets. Set-up: species or system African Green monkey. To be noted: for Ki: recombinant receptor in COS cells, 0.5 nM 3H-YM 09151-2; for IC50: evaluated in the assays described above (Example 7), read-out: interaction with the D4 receptor subtype (IC50). The method, then:
(§1) Pellets of COS cells containing recombinantly produced D2 or D4 receptors from African Green monkey are used for the assays. The sample is homogenized in 100 volumes (w/vol) of 0.05 M Tris HCl buffer at 4° C. and pH 7.4. The sample is then centrifuged at 30,000×g and resuspended and rehomogenized. The sample is again centrifuged as described above and the final tissue sample is frozen until use. The tissue is resuspended 1:20 (wt/vol) in 0.05 M Tris HCl buffer containing 100 mm NaCl.
(§2) Incubations are carried out at […] and contain 0.4 ml of tissue sample, 0.5 nM ^3H-YM 09151-2 (Nemonapride, cis-5-Chloro-2-methoxy-4-(methylamino)-N-(2-methyl-2-(phenylmethyl)-3-pyrrolidinyl)benzamide) and the compound of interest in a total incubation of 1.0 ml. Nonspecific binding is defined as that binding found in the presence of […]; without further additions, nonspecific binding is less than 20% of total binding. Binding characteristics for examples of compounds encompassed within Formula I for the D2 and D4 receptor subtypes are shown in Table 2 for rat striatal homogenates.

Data set [2] addresses T1, D2 receptors (Chlorocebus aethiops, UniProt P52702).
T1 construct: expressed in transfected cells; host or cells: COS cells
Briefly: D2 receptor binding, 3H-YM 09151-2 displacement, COS cell pellets. Set-up: species or system African Green monkey. The conditions noted are these: recombinant receptor in COS cells; 0.5 nM 3H-YM 09151-2. The method, then: as §1, §2

Some results are limits rather than exact numbers.

T1 sequence (P52702 whole entry): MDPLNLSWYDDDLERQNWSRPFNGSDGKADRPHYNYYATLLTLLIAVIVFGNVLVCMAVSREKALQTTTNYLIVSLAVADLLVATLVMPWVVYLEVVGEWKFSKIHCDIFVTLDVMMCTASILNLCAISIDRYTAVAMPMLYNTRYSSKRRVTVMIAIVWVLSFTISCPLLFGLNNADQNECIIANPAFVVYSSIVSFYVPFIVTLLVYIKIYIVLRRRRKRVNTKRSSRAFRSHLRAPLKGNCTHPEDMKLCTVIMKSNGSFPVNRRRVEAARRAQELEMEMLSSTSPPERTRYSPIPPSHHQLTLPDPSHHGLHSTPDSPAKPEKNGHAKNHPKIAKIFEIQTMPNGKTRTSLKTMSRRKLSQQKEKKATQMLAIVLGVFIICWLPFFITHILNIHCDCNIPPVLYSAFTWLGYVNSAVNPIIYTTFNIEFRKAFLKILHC

Take `Clc1ccc(CN2CCN(c3ccc4ccccc4c3)CC2)cc1` [Compound 6]: the Ki (usually the equilibrium dissociation constant of an inhibitor or competing ligand from its target) in data set [1] is 9 nM; in data set [2] it was greater than 4000 nM.
For the compound `Cl.Clc1ccc(CN2CCN(c3ccc4ccccc4c3)CC2)cc1`, the melting point (commonly the temperature of the solid-liquid transition) lay in the range of 216 to 218 °C.
Still for that read-out and setting: under `Br.Cc1ccc2c(C)cc(N3CCN(Cc4ccc(Cl)cc4)CC3)nc2c1` stands 295 to 296 °C.
Consider `Cc1ccc(CN2CCN(c3ccc4ccccc4n3)CC2)cc1` [Compound 2], for which the Ki in data set [1] was 8 nM; in data set [2] it was greater than 4000 nM.
Regarding `Br.Fc1ccccc1CN1CCN(c2ccc3ccccc3c2)CC1`, the melting point was in the range of 239 to 240 °C.
The same measure, in the same setting: with `CC(C)c1ccc(CN2CCN(c3ccc4ccccc4n3)CC2)cc1.Cl` the figure was 270 to 271 °C.
The same measure, in the same setting: with `Fc1cc(N2CCN(Cc3ccccc3)CC2)nc2ccccc12.O=C(O)C(=O)O` the figure was 186 to 187 °C.
`c1ccc(CN2CCN(c3ccc4ccccc4c3)CC2)cc1` [Comparative Compound A, 1-naphth-2-yl-4-benzylpiperazine, reference compound]: in data set [1], the IC50 (as a rule, the concentration at which inhibition is half-maximal) came out at 33 nM.
For the compound `Br.Clc1ccc(CN2CCN(c3ccc4ccccc4n3)CC2)cc1Cl`, the melting point was in the range of 285 to 287 °C.
Same read-out and setting: under `Br.Cc1cc(N2CCN(Cc3ccc(Cl)cc3)CC2)nc2c(C)cccc12` stands 262 to 264 °C; under `Br.Clc1ccc(CN2CCN(c3ccc4ccccc4n3)CC2)cc1`, 268 to 271 °C; under `Clc1ccc(CN2CCN(c3cnc4ccccc4n3)CC2)cc1.O=C(O)C(=O)O`, 209 to 212 °C.
The same measure, in the same setting: with `Fc1ccc(CN2CCN(c3cc(F)c4ccccc4n3)CC2)cc1.O=C(O)C(=O)O` the figure was 191 to 193 °C.
Take `Clc1ccc(CN2CCN(c3ccc4c(n3)CCCC4)CC2)cc1` [Compound 7]: the Ki turned out to be 7 nM in data set [1] and 1930 nM in data set [2].
As to `CC(C)(C)c1ccc(CN2CCN(c3ccc4ccccc4n3)CC2)cc1.Cl`, the melting point was in the range of 285 to 287 °C.
Same read-out and setting: under `Br.Fc1cccc(CN2CCN(c3ccc4ccccc4c3)CC2)c1` stands 253 to 255 °C; under `Br.Fc1ccc(CN2CCN(c3ccc4ccccc4c3)CC2)cc1`, 244 to 246 °C.
As for `Clc1ccc(CN2CCN(c3cnc4ccccc4n3)CC2)cc1` [Compound 3], the Ki in data set [1] is 11 nM; in data set [2] it was greater than 4000 nM.
For `Br.c1ccc2nc(N3CCN(Cc4ccc5c(c4)OCO5)CC3)ccc2c1`, the melting point was in the range of 279 to 280 °C.
Same read-out and setting: under `Br.Cc1cc(N2CCN(Cc3ccc(Cl)cc3)CC2)nc2ccccc12` stands 215 to 217 °C; under `Br.Cc1nc2ccccc2nc1N1CCN(Cc2ccc(Cl)cc2)CC1`, 293 to 295 °C.
Still for that read-out and setting: with `Br.Cc1ccc(CN2CCN(c3ccc4ccccc4c3)CC2)cc1` the figure was 222 to 223 °C.
In the case of `c1ccc(CN2CCN(c3ccc4ccccc4n3)CC2)cc1` [Comparative Compound B, 1-(quinolin-2-yl)-4-benzylpiperazine, reference compound], the IC50 in data set [1] was 194 nM.
`Br.FC(F)(F)c1ccc(CN2CCN(c3ccc4ccccc4n3)CC2)cc1` showed a melting point of 271 to 273 °C.
For `Clc1ccc(CN2CCN(c3ncc4ccccc4n3)CC2)cc1.O=C(O)C(=O)O`, the melting point lay in the range of 207 to 209 °C.
The same measure, in the same setting: with `FC(F)(F)Oc1ccc(CN2CCN(c3ccc4ccccc4n3)CC2)cc1` [Example 3(l), 1-(quinolin-2-yl)-4-(1-[4-trifluoromethoxyphenyl]methyl)piperazine] the figure was 109 to 110 °C; with `Cc1ccc(CN2CCN(c3ccc4ccccc4n3)CC2)cc1.Cl`, 278 to 280 °C; with `COc1ccc2nc(N3CCN(Cc4ccc(Cl)cc4)CC3)cc(C)c2c1.Cl`, 250 to 253 °C.

The record behind these values is patent publication US6384224B2, “Certain 1-(2-naphthyl) and 1-(2-azanaphthyl)-4-(1-phenylmethyl) piperazines; dopamine receptor subtype specific ligands” (Neurogen Corporation, priority 1997, dated 2002).
